Values of other authors, collected in US20110257192A1, “COMPOUND FOR TREATMENT OF RESPIRATORY CONDITION OR DISEASE” (BIOTA SCIENTIFIC MANAGEMENT PTY LTD, priority 2010, published 2011).

Settings: administered orally

Q: For `Cc1cc(CCCOc2c(C)cc(-c3noc(C(F)(F)F)n3)cc2C)on1` [pleconaril], which “effect on asthma exacerbation” value is on record?
A: Its value is “did not have an effect on asthma exacerbation”.
